For series [1], the system named is MDA-MB-435. Nature of the series: Cytotoxicity, standard NCI assay with sulforhodamine B, 96 h. It is filed as cell-based, human. Particulars: Homo sapiens, MDA-MB-435, 96 h, read-out: Cytotoxicity (nM, ± SD) MDA-MB-435.
The test system of series [2] is OVCAR-8. The series is described as above. Particulars: for IC50: read-out: Cytotoxicity (nM, ± SD) OVCAR-8; for GI50: read-out: cytotoxicity (GI50, nM ± SD) OVCAR-8.
For series [3], the system named is MCF-7. The description is as above. The following applies: for IC50: read-out: Cytotoxicity (nM, ± SD) MCF-7; for GI50: read-out: cytotoxicity (GI50, nM ± SD) MCF-7.
The subject of series [4] is SNB-75. Described as above. It is filed as cell-based, human. Particulars: Homo sapiens, SNB-75, 96 h, read-out: Cytotoxicity (nM, ± SD) SNB-75.
Series [5] has as its system tubulin. The series is described as follows: Induction/enhancement of tubulin assembly (Lin, et al., 1996). Particulars: 10 μM tubulin, 0.4M monosodium glutamate, 30 min at room temperature. The format is biochemical.
Series [6] concerns NCI/ADR-RES. Nature of the series: Cytotoxicity, standard NCI assay with sulforhodamine B, 96 h. The format is cell-based, human. Particulars: Homo sapiens, NCI/ADR-RES, 96 h, read-out: Cytotoxicity (nM, ± SD) NCI/ADR-RES.
Where [7] appears, read: Table 3, read-out: Enhancement of tubulin assembly (EC50).
Setting [8] is: Table 2, read-out: induction of tubulin assembly (EC50, μM ± SD).
Setting [9] is: OVCAR-8, 96 h at 37° C., Table 2.

These results are taken from US10874646B2, “Epothilone analogs, methods of synthesis, methods of treatment, and drug conjugates thereof” (WILLIAM MARSH RICE UNIVERSITY, priority 2015, dated 2020).

The structures appear in SMILES notation. Like-named read-outs stand apart in the source and are kept apart here.

With `C/C(=C\c1csc(CN)n1)[C@@H]1C[C@@H]2N(CCO)[C@]2(C)CCC[C@H](C)[C@H](O)[C@@H](C)C(=O)C(C)(C)[C@@H](O)CC(=O)O1` (some centres unmarked) [Compound 75], the IC50 in series [1] is 20 ± 3 nM; in series [2] (Homo sapiens, OVCAR-8, 96 h), 93 ± 20 nM; in series [3] (Homo sapiens, MCF7, 96 h), 65 ± 7 nM; in series [4] it was 130 ± 20 nM; in series [6], 2800 nM. Besides, the EC50 in series [5] (setting [7]) was more than 60 µM.

Consider `C/C(=C\c1ccccn1)[C@@H]1C[C@@H]2N(CCO)[C@]2(C)CCC[C@H](C)[C@H](O)[C@@H](C)C(=O)C(C)(C)[C@@H](O)CC(=O)O1` (some centres unmarked) [Compound 73], for which the IC50 in series [1] came to 30 ± 4 nM; in series [2] (Homo sapiens, OVCAR-8, 96 h), 170 ± 20 nM; in series [3] (Homo sapiens, MCF7, 96 h), 250 ± 40 nM; in series [4], 98 ± 10 nM; in series [6], 4000 nM. In series [5] (setting [7]), the EC50 was more than 60 µM.

As for `C/C(=C\c1ccn(-c2ccc(N)cc2C(F)(F)F)n1)[C@@H]1C[C@@H]2O[C@]2(C)CCC[C@H](C)[C@H](O)[C@@H](C)C(=O)C(C)(C)[C@@H](O)CC(=O)O1` [Compound 13], the GI50 in series [2] (Homo sapiens, OVCAR-8, 96 h) turned out to be 35 ± 5 nM; in series [3] (Homo sapiens, MCF7, 96 h) it was 9 ± 1 nM. In addition, the EC50 in series [5] (setting [8]) is more than 40 µM.

On to `C/C(=C\c1csc(C)n1)[C@@H]1C/C=C\CCC[C@H](C)[C@H](O)[C@@H](C)C(=O)C(C)(C)[C@@H](O)CC(=O)O1` [EpoC, epothilone C, reference compound], for which the GI50 was found to be 110 ± 7 nM in series [2] (setting [9]) and 70 nM in series [3] (MCF-7, 96 h at 37° C., Table 2). Also, the EC50 in series [5] (setting [8]) was 18 µM.

In the case of `CSc1nc(/C=C(\C)[C@@H]2C[C@@H]3N(CCN=[N+]=[N-])[C@]3(C)CCC[C@H](C)[C@H](O)[C@@H](C)C(=O)C(C)(C)[C@@H](O)CC(=O)O2)cs1` (some centres unmarked) [Compound 80], the IC50 was 7.3 ± 2 nM in series [1]; 15 nM in series [2] (Homo sapiens, OVCAR-8, 96 h); 13 ± 3 nM in series [3] (Homo sapiens, MCF7, 96 h); 22 ± 3 nM in series [4]; 3.2 ± 0.8 nM in series [6]. The EC50 in series [5] (setting [7]) amounted to 5.4 ± 0.6 µM.

`C/C(=C\c1csc(CCN)n1)[C@@H]1C[C@@H]2N(CCO)[C@]2(C)CCC[C@H](C)[C@H](O)[C@@H](C)C(=O)C(C)(C)[C@@H](O)CC(=O)O1` (some centres unmarked) [Compound 76]: the IC50 in series [1] is 3.8 ± 0.7 nM; in series [2] (Homo sapiens, OVCAR-8, 96 h) it was 8.6 ± 1 nM; in series [3] (Homo sapiens, MCF7, 96 h), 15 ± 3 nM; in series [4], 50 ± 10 nM; in series [6], 45 ± 6 nM. Moreover, the EC50 in series [5] (setting [7]) was found to be 9.1 ± 1 µM.

Take `C/C(=C\c1nc2ccccc2s1)[C@@H]1C[C@@H]2N(CCO)[C@]2(C)CCC[C@H](C)[C@H](O)[C@@H](C)C(=O)C(C)(C)[C@@H](O)CC(=O)O1` (some centres unmarked) [Compound 74]: the IC50 amounted to 3.5 ± 0.3 nM in series [1]; 23 ± 7 nM in series [2] (Homo sapiens, OVCAR-8, 96 h); 11 ± 1 nM in series [3] (Homo sapiens, MCF7, 96 h); 12 ± 3 nM in series [4]; 630 ± 80 nM in series [6]. The EC50 in series [5] (setting [7]) worked out at 7.9 ± 1 µM.

Turning to `C/C(=C\c1csc(C)n1)[C@@H]1C[C@@H]2N(CCO)[C@]2(C)CCC[C@H](C)[C@H](O)[C@@H](C)C(=O)C(C)(C)[C@@H](O)CC(=O)O1` (some centres unmarked) [Compound 71], the IC50 in series [2] (Homo sapiens, OVCAR-8, 96 h) came out at 4.5 ± 0.7 nM; in series [3] (Homo sapiens, MCF7, 96 h), 3 ± 1 nM; in series [6] it was 55 ± 20 nM. Moreover, the EC50 in series [5] (setting [7]) was found to be 18.2 µM.

On to `C/C1=C/C[C@@H](/C(C)=C/c2csc(C)n2)OC(=O)C[C@H](O)C(C)(C)C(=O)[C@H](C)[C@@H](O)[C@@H](C)CCC1` [EpoD, epothilone D, reference compound], for which the GI50 in series [2] (setting [9]) is 13 ± 4 nM; in series [3] (MCF-7, 96 h at 37° C., Table 2), 14 ± 1 nM. Besides, the EC50 in series [5] (setting [8]) amounted to 18 µM.

Consider `C/C(=C\c1csc(C)n1)[C@@H]1C[C@@H]2O[C@]2(C)CCC[C@H](C)[C@H](O)[C@@H](C)C(=O)C(C)(C)[C@@H](O)CC(=O)N1` [Ixab, ixabepilone, reference compound], for which the GI50 in series [2] (Homo sapiens, OVCAR-8, 96 h) came to 35 ± 10 nM; in series [3] (Homo sapiens, MCF7, 96 h), 7 ± 1 nM. In series [5] (setting [8]), the EC50 was 4.5 ± 0.7 µM.

For the compound `C/C(=C\c1csc(C)n1)[C@@H]1C[C@@H]2N[C@]2(C)CCC[C@H](C)[C@H](O)[C@@H](C)C(=O)C(C)(C)[C@@H](O)CC(=O)O1` [Compound 70], the IC50 came to 1.5 ± 0.7 nM in series [2] (Homo sapiens, OVCAR-8, 96 h); 2 nM in series [3] (Homo sapiens, MCF7, 96 h); 35 ± 7 nM in series [6]. Further, the EC50 in series [5] (setting [7]) amounted to 19 µM.
